Test results reported in US11884661B2, “3-substituted propionic acids as αV integrin inhibitors” (BRISTOL-MYERS SQUIBB COMPANY, priority 2016, dated 2024).

Target: T1, human αVβ6 (Homo sapiens, UniProt P06756+P18564)
T1 construct: purchased R & D systems 3817-AV
Assay: human αVβ6 HTRF binding assay
Details: recombinant human αVβ6 integrin, FITC-conjugated fibronectin
Procedure: All binding assays used the HTRF (homogeneous time resolved fluorescence) technology from Cisbio International, therefore all assays are described as HTRF binding assays. The assay results for the Examples are listed above together with the characterization data. The HTRF binding assays are established for the following integrins: human αVβ6, human αVβ1, human αVβ3, human αVβ5, and human αVβ8. All assays used the following assay buffer: 20 mM Tris, pH 7.4, 1 mM MgCl2, 1 mM MnCl2, 0.01% Tween 20, and 0.01% BSA. Alternatively, a SPA-based assay was used for evaluation of receptor binding.
The following describes the components and a representative procedure for the human αVβ6 HTRF binding assay: Recombinant human αVβ6 Integrin (R & D systems, 3817-AV) was biotinylated. Biotinylated human αVβ6 Integrin was added to assay vessel at a final concentration of 1.25 nM. FITC-conjugated fibronectin (Cytoskeleton, FNR02) was then added at the final concentration of 5 nM. The mixture was centrifuged at 600 rpm for three minutes using Thermo Fisher Heraeus Multifuge X3 centrifuge and then incubated at RT for an hour. Streptavidin Terbium (Cisbio international 610STLB) was then added at the final concentration of 0.625 nM. The resulting mixture was centrifuged at 600 rpm for three minutes using Thermo Fisher Heraeus Multifuge X3 centrifuge and then incubated at room temperature overnight in dark before reading HTRF signals.

T1 sequence (P06756 31-992 limits assumed): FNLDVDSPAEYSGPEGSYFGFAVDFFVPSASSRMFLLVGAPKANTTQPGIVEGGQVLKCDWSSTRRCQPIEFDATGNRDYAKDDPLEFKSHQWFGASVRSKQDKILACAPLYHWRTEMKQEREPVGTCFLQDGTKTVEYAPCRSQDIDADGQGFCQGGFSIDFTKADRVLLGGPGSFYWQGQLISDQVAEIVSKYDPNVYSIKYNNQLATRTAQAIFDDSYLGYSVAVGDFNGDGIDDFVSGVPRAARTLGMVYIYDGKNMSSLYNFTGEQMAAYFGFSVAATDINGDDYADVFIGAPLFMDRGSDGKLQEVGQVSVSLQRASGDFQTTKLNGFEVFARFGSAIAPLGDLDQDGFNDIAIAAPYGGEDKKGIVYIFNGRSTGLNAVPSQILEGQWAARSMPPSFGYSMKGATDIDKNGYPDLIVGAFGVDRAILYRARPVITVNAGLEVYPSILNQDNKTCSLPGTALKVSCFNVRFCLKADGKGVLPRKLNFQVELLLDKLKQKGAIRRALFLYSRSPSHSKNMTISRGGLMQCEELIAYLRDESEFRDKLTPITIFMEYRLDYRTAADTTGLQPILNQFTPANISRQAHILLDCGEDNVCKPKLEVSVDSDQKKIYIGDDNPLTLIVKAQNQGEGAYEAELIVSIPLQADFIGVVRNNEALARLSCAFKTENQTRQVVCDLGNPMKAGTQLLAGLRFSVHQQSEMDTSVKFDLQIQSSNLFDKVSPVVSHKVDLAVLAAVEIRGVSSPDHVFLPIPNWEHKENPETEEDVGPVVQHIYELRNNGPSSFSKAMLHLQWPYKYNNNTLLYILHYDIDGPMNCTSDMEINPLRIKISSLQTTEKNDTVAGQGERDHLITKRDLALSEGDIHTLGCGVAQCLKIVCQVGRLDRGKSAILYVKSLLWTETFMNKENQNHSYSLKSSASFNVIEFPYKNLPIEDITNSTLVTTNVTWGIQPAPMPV
T1 sequence (P18564 22-707 limits assumed): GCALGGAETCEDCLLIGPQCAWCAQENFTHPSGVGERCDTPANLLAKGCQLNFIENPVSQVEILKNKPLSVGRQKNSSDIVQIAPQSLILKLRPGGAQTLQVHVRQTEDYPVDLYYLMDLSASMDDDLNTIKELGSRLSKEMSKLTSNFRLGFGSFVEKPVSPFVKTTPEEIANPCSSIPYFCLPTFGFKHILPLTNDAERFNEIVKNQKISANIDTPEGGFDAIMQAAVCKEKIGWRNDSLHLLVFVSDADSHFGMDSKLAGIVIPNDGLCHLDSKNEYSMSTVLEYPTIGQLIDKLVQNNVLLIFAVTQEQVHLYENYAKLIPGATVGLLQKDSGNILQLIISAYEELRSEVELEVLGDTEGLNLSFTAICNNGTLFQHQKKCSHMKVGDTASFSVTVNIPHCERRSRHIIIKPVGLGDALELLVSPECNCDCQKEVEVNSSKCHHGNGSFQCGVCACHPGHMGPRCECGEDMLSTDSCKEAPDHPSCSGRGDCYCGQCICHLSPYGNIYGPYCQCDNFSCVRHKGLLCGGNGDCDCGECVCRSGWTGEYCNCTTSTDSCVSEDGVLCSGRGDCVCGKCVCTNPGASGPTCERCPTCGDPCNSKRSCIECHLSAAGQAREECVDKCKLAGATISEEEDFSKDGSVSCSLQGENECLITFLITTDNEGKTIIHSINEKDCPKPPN

SMILES | IC50 [µM]
Cc1cncc(C(CC(=O)O)n2ccc(CCCc3ccc4c(n3)NCCC4)n2)c1 (single isomer, unassigned) [Example 69, 3-(5-methylpyridin-3-yl)-3-{3-[3-(5,6,7,8-tetrahydro-1,8-naphthyridin-2-yl)propyl]-1H-pyrazol-1-yl}propanoic acid] | 0.015
Cc1cncc(C(CC(=O)O)n2ccc(CCCc3ccc4c(n3)NCCC4)n2)c1 (single isomer, unassigned) [Example 70, 3-(5-methylpyridin-3-yl)-3-{3-[3-(5,6,7,8-tetrahydro-1,8-naphthyridin-2-yl)propyl]-1H-pyrazol-1-yl}propanoic acid] | 4.9
COCCOc1cncc(C(CC(=O)O)n2ccc(CCCc3ccc4c(n3)NCCC4)n2)c1 (single isomer, unassigned) [Example 80, 3-(5-(2-methoxyethoxy)pyridin-3-yl)-3-(3-(3-(5,6,7,8-tetrahydro-1,8-naphthyridin-2-yl)propyl)-1H-pyrazol-1-yl)propanoic acid] | 0.0018
O=C(O)CC(c1cncc(N2CCOCC2)c1)n1nccc1CCCc1ccc2c(n1)NCCC2 (single isomer, unassigned) [Example 94, 3-(5-morpholinopyridin-3-yl)-3-(5-(3-(5,6,7,8-tetrahydro-1,8-naphthyridin-2-yl)propyl)-1H-pyrazol-1-yl)propanoic acid] | 0.019
O=C(O)CC(c1cncc(N2CCOCC2)c1)n1nccc1CCCc1ccc2c(n1)NCCC2 (single isomer, unassigned) [Example 95, 3-(5-morpholinopyridin-3-yl)-3-(5-(3-(5,6,7,8-tetrahydro-1,8-naphthyridin-2-yl)propyl)-1H-pyrazol-1-yl)propanoic acid] | 0.23
Cc1ncc(C(CC(=O)O)n2ccc(CCCc3ccc4c(n3)NCCCC4)n2)cn1 (single isomer, unassigned) [Example 97, 3-(2-methylpyrimidin-5-yl)-3-(3-(3-(6,7,8,9-tetrahydro-5H-pyrido[2,3-b]azepin-2-yl)propyl)-1H-pyrazol-1-yl)propanoic acid] | 0.045
COc1ccc(C(CC(=O)O)n2ccc(CCCc3ccc4c(n3)NCCCC4)n2)cn1 (single isomer, unassigned) [Example 101, 3-(6-methoxypyridin-3-yl)-3-(3-(3-(6,7,8,9-tetrahydro-5H-pyrido[2,3-b]azepin-2-yl)propyl)-1H-pyrazol-1-yl)propanoic acid] | 0.0043
COc1ccc(C(CC(=O)O)n2ccc(CCCc3ccc4c(n3)NCCCC4)n2)cn1 (single isomer, unassigned) [Example 102, 3-(6-methoxypyridin-3-yl)-3-(3-(3-(6,7,8,9-tetrahydro-5H-pyrido[2,3-b]azepin-2-yl)propyl)-1H-pyrazol-1-yl)propanoic acid] | 0.15
COc1ncc(C(CC(=O)O)n2ccc(CCCc3ccc4c(n3)NCCCC4)n2)cn1 (single isomer, unassigned) [Example 104, 3-(2-methoxypyrimidin-5-yl)-3-(3-(3-(6,7,8,9-tetrahydro-5H-pyrido[2,3-b]azepin-2-yl)propyl)-1H-pyrazol-1-yl)propanoic acid] | 0.01
COc1ncc(C(CC(=O)O)n2ccc(CCCc3ccc4c(n3)NCCCC4)n2)cn1 (single isomer, unassigned) [Example 105] | 0.47
COc1ccc(C(CC(=O)O)c2cc(CCCc3ccc4c(n3)NCCC4)[nH]n2)cc1F (single isomer, unassigned) [Example 115, 3-(3-Fluoro-4-methoxyphenyl)-3-(5-(3-(5,6,7,8-tetrahydro-1,8-naphthyridin-2-yl)propyl)-1H-pyrazol-3-yl)propanoic acid] | 0.097
CN(C)C(=O)c1cccc(C(CC(=O)O)c2nc(CCCCc3ccc4c(n3)NCCC4)cs2)c1 (single isomer, unassigned) [Example 117, 3-(3-(dimethylcarbamoyl)phenyl)-3-(4-(4-(5,6,7,8-tetrahydro-1,8-naphthyridin-2-yl)butyl)thiazol-2-yl)propanoic acid] | 0.076
CN(C)C(=O)c1cccc(C(CC(=O)O)c2nc(CCCCc3ccc4c(n3)NCCC4)cs2)c1 (single isomer, unassigned) [Example 118, 3-(3-(dimethylcarbamoyl)phenyl)-3-(4-(4-(5,6,7,8-tetrahydro-1,8-naphthyridin-2-yl)butyl)thiazol-2-yl)propanoic acid] | 0.0019
O=C(O)CC(c1ccc2nccnc2c1)c1nc(CCCCc2ccc3c(n2)NCCC3)cs1 (single isomer, unassigned) [Example 119, 3-(quinoxalin-6-yl)-3-(4-(4-(5,6,7,8-tetrahydro-1,8-naphthyridin-2-yl)butyl)thiazol-2-yl)propanoic acid] | 0.099
O=C(O)CC(c1ccc2nccnc2c1)c1nc(CCCCc2ccc3c(n2)NCCC3)cs1 (single isomer, unassigned) [Example 120, 3-(quinoxalin-6-yl)-3-(4-(4-(5,6,7,8-tetrahydro-1,8-naphthyridin-2-yl)butyl)thiazol-2-yl)propanoic acid] | 0.014
CN(C)c1ccc(C(CC(=O)O)c2nc(CCCCc3ccc4c(n3)NCCC4)cs2)cn1 (single isomer, unassigned) [Example 121, 3-(6-(dimethylamino)pyridin-3-yl)-3-(4-(4-(5,6,7,8-tetrahydro-1,8-naphthyridin-2-yl)butyl)thiazol-2-yl)propanoic acid] | 0.17
CN(C)c1ccc(C(CC(=O)O)c2nc(CCCCc3ccc4c(n3)NCCC4)cs2)cn1 (single isomer, unassigned) [Example 122, 3-(6-(dimethylamino)pyridin-3-yl)-3-(4-(4-(5,6,7,8-tetrahydro-1,8-naphthyridin-2-yl)butyl)thiazol-2-yl)propanoic acid] | 0.0035
COc1ccc(C(CC(=O)O)c2nc(CCCCc3ccc4c(n3)NCCC4)cs2)cc1OC (single isomer, unassigned) [Example 123, 3-(3,4-dimethoxyphenyl)-3-(4-(4-(5,6,7,8-tetrahydro-1,8-naphthyridin-2-yl)butyl)thiazol-2-yl)propanoic acid] | 0.18
COc1ccc(C(CC(=O)O)c2nc(CCCCc3ccc4c(n3)NCCC4)cs2)cc1OC (single isomer, unassigned) [Example 124, 3-(3,4-dimethoxyphenyl)-3-(4-(4-(5,6,7,8-tetrahydro-1,8-naphthyridin-2-yl)butyl)thiazol-2-yl)propanoic acid] | 0.0025
O=C(O)CC(c1cccc(N2CCOCC2)c1)c1nc(CCCCc2ccc3c(n2)NCCC3)cs1 (single isomer, unassigned) [Example 125, 3-(3-morpholinophenyl)-3-(4-(4-(5,6,7,8-tetrahydro-1,8-naphthyridin-2-yl)butyl)thiazol-2-yl)propanoic acid] | 0.18
O=C(O)CC(c1cccc(N2CCOCC2)c1)c1nc(CCCCc2ccc3c(n2)NCCC3)cs1 (single isomer, unassigned) [Example 126, 3-(3-morpholinophenyl)-3-(4-(4-(5,6,7,8-tetrahydro-1,8-naphthyridin-2-yl)butyl)thiazol-2-yl)propanoic acid] | 0.006
CN(C)C(=O)c1ccc(C(CC(=O)O)c2nc(CCCCc3ccc4c(n3)NCCC4)cs2)cc1 (single isomer, unassigned) [Example 127, 3-(4-(dimethylcarbamoyl)phenyl)-3-(4-(4-(5,6,7,8-tetrahydro-1,8-naphthyridin-2-yl)butyl)thiazol-2-yl)propanoic acid] | 0.06
CN(C)C(=O)c1ccc(C(CC(=O)O)c2nc(CCCCc3ccc4c(n3)NCCC4)cs2)cc1 (single isomer, unassigned) [Example 128, 3-(4-(dimethylcarbamoyl)phenyl)-3-(4-(4-(5,6,7,8-tetrahydro-1,8-naphthyridin-2-yl)butyl)thiazol-2-yl)propanoic acid] | 0.0043
CCOc1ncc(C(CC(=O)O)c2nc(CCCCc3ccc4c(n3)NCCC4)cs2)cn1 (single isomer, unassigned) [Example 129, 3-(2-ethoxypyrimidin-5-yl)-3-(4-(4-(5,6,7,8-tetrahydro-1,8-naphthyridin-2-yl)butyl)thiazol-2-yl)propanoic acid] | 0.028
CCOc1ncc(C(CC(=O)O)c2nc(CCCCc3ccc4c(n3)NCCC4)cs2)cn1 (single isomer, unassigned) [Example 130, 3-(2-ethoxypyrimidin-5-yl)-3-(4-(4-(5,6,7,8-tetrahydro-1,8-naphthyridin-2-yl)butyl)thiazol-2-yl)propanoic acid] | 0.0029
CN(C)C(=O)c1ccc(C(CC(=O)O)c2nc(CCCCc3ccc4c(n3)NCCC4)cs2)cc1F (single isomer, unassigned) [Example 131, 3-(4-(dimethylcarbamoyl)-3-fluorophenyl)-3-(4-(4-(5,6,7,8-tetrahydro-1,8-naphthyridin-2-yl)butyl)thiazol-2-yl)propanoic acid] | 0.0023
CN(C)C(=O)c1ccc(C(CC(=O)O)c2nc(CCCCc3ccc4c(n3)NCCC4)cs2)cc1F (single isomer, unassigned) [Example 132, 3-(4-(dimethylcarbamoyl)-3-fluorophenyl)-3-(4-(4-(5,6,7,8-tetrahydro-1,8-naphthyridin-2-yl)butyl)thiazol-2-yl)propanoic acid] | 0.081
